# Where two headings read alike, the source gives them in different places.
# Columns and labels:
# [1] = target: human emopamil binding protein and human 7-dehydrocholesterol reductase co-expressing cells (hEBP-DHCR7 membrane) (Homo sapiens (Human), UniProt Q15125); experiment: Radioligand filter binding assay on hEBP-DHCR7 membrane; conditions: [3H]-(S)-6-(2-Methyl-3-(6-(trifluoromethyl)pyridin-3-yl)propyl)-2-thia-6-azaspiro[3.4]octane 2,2-dioxide radioligand, HEK293 membrane co-expressing hEBP and hDHCR7
# human emopamil binding protein and human 7-dehydrocholesterol reductase co-expressing cells (hEBP-DHCR7 membrane), sequence (Q15125 whole entry): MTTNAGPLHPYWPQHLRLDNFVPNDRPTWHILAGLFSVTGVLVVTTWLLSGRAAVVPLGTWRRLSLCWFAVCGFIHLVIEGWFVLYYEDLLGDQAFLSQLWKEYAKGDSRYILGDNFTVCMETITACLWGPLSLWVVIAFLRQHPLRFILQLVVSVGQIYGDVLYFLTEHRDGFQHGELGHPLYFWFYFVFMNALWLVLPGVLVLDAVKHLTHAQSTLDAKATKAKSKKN
# In short: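 HEK293 cells transiently co-expressing human EBP and DHCR7 supplied whole-cell membranes (10 μg/well), incubated 3 h at 22 °C with [3H]-labelled spiro-octane dioxide ligand (added at 25 nM) and compound (0.06-5000 nM final, 8 doses, n=2). Bound ligand was collected on PEI-treated GF/B filters and counted by scintillation. IC50 was Hill-fitted from % inhibition and reported as Ki.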
# [2] = test system: EBP (zymostenol accumulation in EpiSC-derived OPCs); experiment: GC/MS-based sterol profiling, zymostenol accumulation in OPCs; assay type: cell-based, mouse; conditions: read-out: Zymostenol GCMS EC50
# In short: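 EpiSC-derived OPCs (100,000/well) were treated 24 h in N2B27 without growth factors. Sterols were TMS-derivatized and analysed by GC/MS full-scan EI, quantified against cholesterol-d7. Zymostenol was normalized to the level after 24 h with 100 nM positive control reference.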
# [3] = Mus musculus, 24 h, EpiSC-derived OPCs, 24 hr treatment, 8 doses from 0.15 nM to 333 nM
Ki [1] [µM],"EC50 [2, 3] [µM]","EC50 ([2]; EpiSC-derived OPCs, 24 hr treatment, 8 doses from 0.15 nM to 333 nM) [µM]",SMILES,"EC50 ([2]; Mus musculus, 24 h) [µM]"
0.032,0.023,–,"O=S1(=O)CC2(CCN([C@H]3CC[C@@H](c4cc(C(F)(F)F)nn4C4CC4)CC3)C2)C1 [Compound 12B, 6-((1s,4s)-4-(1-Cyclopropyl-3-(trifluoromethyl)-1H-pyrazol-5-yl)cyclohexyl)-2-thia-6-azaspiro[3.4]octane 2,2-dioxide]",–
0.183,0.017,–,"O=S1(=O)CC2(CCN([C@H]3CC[C@H](c4cc(C(F)(F)F)nn4C4CC4)CC3)CC2)C1 [Compound 40B, 7-((1s,4s)-4-(1-cyclopropyl-3-(trifluoromethyl)-1H-pyrazol-5-yl)cyclohexyl)-2-thia-7-azaspiro[3.5]nonane 2,2-dioxide]",–
0.0175,0.034,–,"Cc1cc(C(F)(F)F)cnc1N1CCC(N2CCC3(C2)CS(=O)(=O)C3)CC1 [Compound 7, 6-(1-(3-methyl-5-(trifluoromethyl)pyridin-2-yl)piperidin-4-yl)-2-thia-6-azaspiro[3.4]octane 2,2-dioxide]",–
0.148,0.05,–,"O=S1(=O)CC2(CCN(C3CCN(c4ccc(C(F)(F)F)nc4)CC3)C2)C1 [Compound 5, 6-(1-(6-(trifluoromethyl)pyridin-3-yl)piperidin-4-yl)-2-thia-6-azaspiro[3.4]octane 2,2-dioxide]",–
0.039,0.038,–,"CC(C)n1cc(C(F)(F)F)nc1[C@@H]1CC[C@H](N2CCC3(C2)CS(=O)(=O)C3)C1 (single isomer, unassigned) [20D*]",–
0.0359,0.0073,–,"O=S1(=O)CC2(CCN([C@@H]3CC[C@@H](c4ccc(C(F)(F)F)nc4)C3)C2)C1 (single isomer, unassigned) [Compound 11B, (Trans)-6-(3-(6-(Trifluoromethyl)pyridin-3-yl)cyclopentyl)-2-thia-6-azaspiro[3.4]octane 2,2-dioxide]",–
0.023,0.0041,–,"Cc1cc(C(F)(F)F)cnc1[C@H]1CC[C@H](N2CCC3(C2)CS(=O)(=O)C3)CC1 [Compound 47B, 6-((1r,4r)-4-(3-methyl-5-(trifluoromethyl)pyridin-2-yl)cyclohexyl)-2-thia-6-azaspiro[3.4]octane 2,2-dioxide]",–
0.18,0.022,–,"Cn1nc(C(F)(F)F)cc1[C@H]1CC[C@H](N2CC[C@]3(CCS(=O)(=O)C3)C2)CC1 (single isomer, unassigned) [27B*]",–
0.059,0.011,–,"O=S1(=O)CC2(CCN([C@H]3CC[C@H](c4ccc(C(F)(F)F)nc4)CC3)C2)C1 [Compound 14A, 6-((1r,4r)-4-(6-(Trifluoromethyl)pyridin-3-yl)cyclohexyl)-2-thia-6-azaspiro[3.4]octane 2,2-dioxide]",–
0.26,0.026,–,"Cn1nc(C(F)(F)F)cc1[C@H]1CC[C@H](N2CC[C@@]3(CCS(=O)(=O)C3)C2)CC1 (single isomer, unassigned) [27A*]",–
0.033,0.11,–,"O=S1(=O)CC2(CCN([C@H]3CO[C@H](c4ccc(C(F)(F)F)cc4)C3)C2)C1 (stereo in doubt) [19D*, 6-((3R,5S)-5-(4-(trifluoromethyl)phenyl)tetrahydrofuran-3-yl)-2-thia-6-azaspiro[3.4]octane 2,2-dioxide]",–
0.034,0.014,–,"CC(C)n1nc(C(F)(F)F)cc1[C@H]1CC[C@H](N2CCC3(C2)CS(=O)(=O)C3)CC1 [Compound 8A, 6-((1r,4r)-4-(1-isopropyl-3-(trifluoromethyl)-1H-pyrazol-5-yl)cyclohexyl)-2-thia-6-azaspiro[3.4]octane 2,2-dioxide]",–
0.025,0.004,–,"Cn1nc(C(F)(F)F)cc1[C@H]1CC[C@H](N2CCC[C@@]3(CCS(=O)(=O)C3)C2)CC1 (single isomer, unassigned) [26A*]",–
0.013,0.005,–,"O=S1(=O)CC2(CCN(C3CCN(c4ncc(C(F)(F)F)cc4Cl)CC3)C2)C1 [Compound 30, 6-(1-(3-chloro-5-(trifluoromethyl)pyridin-2-yl)piperidin-4-yl)-2-thia-6-azaspiro[3.4]octane 2,2-dioxide]",–
0.0268,0.0026,–,"O=S1(=O)CC2(CCN([C@@H]3CC[C@@H](c4ccc(C(F)(F)F)cc4)C3)C2)C1 [Compound 1B, 6-((1R,3R)-3-(4-(trifluoromethyl)phenyl)cyclopentyl)-2-thia-6-azaspiro[3.4]octane 2,2-dioxide]",–
0.015,0.0009,–,"CC(C)n1nc(-c2cncc(C(F)(F)F)c2)cc1[C@@H]1CC[C@H](N2CCC3(C2)CS(=O)(=O)C3)C1 (single isomer, unassigned) [13B*]",–

Ki [1] [µM],"EC50 [2, 3] [µM]","EC50 ([2]; EpiSC-derived OPCs, 24 hr treatment, 8 doses from 0.15 nM to 333 nM) [µM]",SMILES,"EC50 ([2]; Mus musculus, 24 h) [µM]"
0.0213,0.0029,–,"CC(C)n1nc(C(F)(F)F)cc1[C@H]1CC[C@@H](N2CCC3(C2)CS(=O)(=O)C3)C1 (single isomer, unassigned) [10B*]",–
0.035,0.0041,–,"O=S1(=O)CC2(CCN([C@@H]3CC[C@H](c4ccc(C(F)(F)F)nc4)C3)C2)C1 (single isomer, unassigned) [11C*]",–
0.0069,0.00091,–,"CC(C)n1nc(-c2cncc(C(F)(F)F)c2)cc1[C@H]1CC[C@@H](N2CCC3(C2)CS(=O)(=O)C3)C1 (single isomer, unassigned) [13A*]",–
0.0187,0.0028,–,"CC(C)n1nc(C(F)(F)F)cc1[C@H]1CC[C@H](N2CCC3(C2)CS(=O)(=O)C3)C1 (single isomer, unassigned) [10A*]",–
0.45,0.043,–,"Cn1nc(C(F)(F)F)cc1[C@H]1CC[C@@H](N2CCC3(CC2)CS(=O)(=O)C3)CC1 [Compound 25A, 7-((1s,4s)-4-(1-Methyl-3-(trifluoromethyl)-1H-pyrazol-5-yl)cyclohexyl)-2-thia-7-azaspiro[3.5]nonane 2,2-dioxide]",–
0.034,0.0076,–,"CC(C)n1nc(-c2cncc(OC(F)F)c2)cc1[C@H]1CC[C@H](N2CCC3(C2)CS(=O)(=O)C3)CC1 [Compound 33A, 6-((1r,4r)-4-(3-(5-(Difluoromethoxy)pyridin-3-yl)-1-isopropyl-1H-pyrazol-5-yl)cyclohexyl)-2-thia-6-azaspiro[3.4]octane 2,2-dioxide]",–
0.0445,0.056,–,"Cn1nc(C(F)(F)F)cc1[C@H]1CC[C@@H](N2CCC3(C2)CS(=O)(=O)C3)CC1 [Compound 2A, 6-((1s,4s)-4-(1-methyl-3-(trifluoromethyl)-1H-pyrazol-5-yl)cyclohexyl)-2-thia-6-azaspiro[3.4]octane 2,2-dioxide]",–
0.04,0.044,–,"O=S1(=O)CC2(CCN(C3CC[C@H](c4ccc(C(F)(F)F)nc4)C3)C2)C1 (single isomer, unassigned) [11D*]",–
0.245,0.394,–,"O=S1(=O)CC2(CCN([C@@H]3CCN(c4ccc(C(F)(F)F)nc4)C3)C2)C1 (single isomer, unassigned) [9B*]",–
0.019,0.0012,–,"CC(C)n1nc(-c2cncc(C(F)(F)F)c2)cc1[C@H]1CC[C@H](N2CCC3(C2)CS(=O)(=O)C3)C1 (single isomer, unassigned) [13D*]",–
0.0583,0.01,–,"O=S1(=O)CC2(CCN([C@H]3CCN(c4ccc(C(F)(F)F)nc4)C3)C2)C1 (single isomer, unassigned) [9A*]",–
0.0378,0.03,–,"O=S1(=O)CC2(CCN([C@H]3CC[C@@H](c4ccc(C(F)(F)F)nc4)C3)C2)C1 (single isomer, unassigned) [Compound 11A, (Cis)-6-(3-(6-(Trifluoromethyl)pyridin-3-yl)cyclopentyl)-2-thia-6-azaspiro[3.4]octane 2,2-dioxide]",–
0.061,0.0086,–,"CCn1nc(-c2ccc(C(F)(F)F)nc2)nc1[C@H]1CC[C@H](N2CCC3(C2)CS(=O)(=O)C3)CC1 [36A*, 6-((1r,4r)-4-(1-Ethyl-3-(6-(trifluoromethyl)pyridin-3-yl)-1H-1,2,4-triazol-5-yl)cyclohexyl)-2-thia-6-azaspiro[3.4]octane 2,2-dioxide]",–
0.26,–,0.02,"Cn1nc(C(F)(F)F)cc1[C@H]1CC[C@H](N2CC[C@]3(CCS(=O)(=O)C3)C2)CC1 (single isomer, unassigned) [38C*]",–
0.0329,0.026,–,"CC(C)n1nc(C(F)(F)F)cc1[C@H]1CC[C@@H](N2CCC3(C2)CS(=O)(=O)C3)CC1 [Compound 8B, 6-((1s,4s)-4-(1-isopropyl-3-(trifluoromethyl)-1H-pyrazol-5-yl)cyclohexyl)-2-thia-6-azaspiro[3.4]octane 2,2-dioxide]",–

SMILES,Ki [1] [µM],"EC50 [2, 3] [µM]","EC50 ([2]; EpiSC-derived OPCs, 24 hr treatment, 8 doses from 0.15 nM to 333 nM) [µM]","EC50 ([2]; Mus musculus, 24 h) [µM]"
"CC(C)n1nc(C2CC2)nc1[C@@H]1CC[C@@H](N2CCC3(C2)CS(=O)(=O)C3)C1 (single isomer, unassigned) [18C*]",0.811,0.054,–,–
"CC(C)n1cc(C(F)(F)F)nc1[C@@H]1CC[C@@H](N2CCC3(C2)CS(=O)(=O)C3)C1 (single isomer, unassigned) [20B*]",0.13,–,–,0.019
"CC(C)n1nc(-c2ccc(C(F)(F)F)nc2)nc1[C@H]1CC[C@H](N2CCC3(C2)CS(=O)(=O)C3)C1 (single isomer, unassigned) [17B*]",0.036,0.004,–,–
"CC(C)n1nc(C2CC2)nc1[C@@H]1CC[C@H](N2CCC3(C2)CS(=O)(=O)C3)C1 (single isomer, unassigned) [18A*]",0.96,–,–,0.072
